Common to all, as to assay: FRET-based coupled-enzyme protein kinase inhibition assay
Type in all cases: biochemical
Common to all, as to settings: compound at 10 µM, 1% DMSO

Assay [1] deals with PAK4 (Homo sapiens, UniProt O96013). The essentials: (§1)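 FRET peptide (coumarin donor, fluorescein acceptor) was phosphorylated by each kinase in 50 mM HEPES pH 7.5, 10 mM MgCl2, 1 mM EDTA, 0.01% BRIJ-35 for 60 min at room temperature. ATP was at apparent Km, compounds in 1% DMSO. Protease development reagent then cleaved non-phosphorylated peptide over 60 min.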
In assay [2] the target is MAP4K4 (HGK) (Homo sapiens, UniProt O95819). In short, it runs like this: as §1
Assay [3] concerns the target RPS6KB1 (p70S6K) (Homo sapiens, UniProt P23443). In short, it runs like this: as §1
Assay [4] concerns the target AMPK A1/B1/G1 (Homo sapiens, UniProt Q13131). The essentials:
as §1

The target of assay [5] is LCK (Homo sapiens, UniProt P06239). The essentials:
as §1

The target of assay [6] is PIM1 (Homo sapiens, UniProt P11309). The essentials:
as §1

In assay [7] the target is CDK1/cyclin B (Homo sapiens, UniProt P06493). In short, it runs like this: as §1
For assay [8], the target named is TEK (Tie2) (Homo sapiens, UniProt Q02763). The essentials:
as §1

Assay [9] has as its target T1, CHEK1 (CHK1) (Homo sapiens, UniProt O14757).
T1 sequence (O14757 1-476): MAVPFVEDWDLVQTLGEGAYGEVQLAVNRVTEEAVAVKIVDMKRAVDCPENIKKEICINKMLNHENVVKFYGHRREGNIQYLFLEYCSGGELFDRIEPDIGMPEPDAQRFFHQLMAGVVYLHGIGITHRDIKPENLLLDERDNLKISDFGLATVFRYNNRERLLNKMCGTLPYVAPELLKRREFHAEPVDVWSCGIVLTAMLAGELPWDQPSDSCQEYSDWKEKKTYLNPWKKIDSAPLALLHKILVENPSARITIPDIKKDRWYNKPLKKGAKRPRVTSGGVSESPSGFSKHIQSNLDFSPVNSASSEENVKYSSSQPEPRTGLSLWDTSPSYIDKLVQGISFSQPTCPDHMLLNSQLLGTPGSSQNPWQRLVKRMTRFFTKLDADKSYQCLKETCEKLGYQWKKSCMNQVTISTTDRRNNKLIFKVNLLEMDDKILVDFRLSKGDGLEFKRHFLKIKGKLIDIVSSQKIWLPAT
The essentials:
as §1

For assay [10], the target named is MARK2 (Homo sapiens, UniProt Q7KZI7). The essentials: as §1
The target of assay [11] is ABL1 (Homo sapiens, UniProt P00519). In short, it runs like this: as §1
The target of assay [12] is RPS6KA3 (RSK2) (Homo sapiens, UniProt P51812). In short, it runs like this:
as §1

In assay [13] the target is PLK1 (Homo sapiens, UniProt P53350). In short, it runs like this:
as §1

Assay [14] has as its target AKT1 (PKB alpha) (Homo sapiens, UniProt P31749). The essentials: as §1
Assay [15] concerns the target CSNK2A1 (CK2 alpha 1) (Homo sapiens, UniProt P68400). The essentials: as §1

Sequence of AMPK A1/B1/G1 (Q13131 whole entry): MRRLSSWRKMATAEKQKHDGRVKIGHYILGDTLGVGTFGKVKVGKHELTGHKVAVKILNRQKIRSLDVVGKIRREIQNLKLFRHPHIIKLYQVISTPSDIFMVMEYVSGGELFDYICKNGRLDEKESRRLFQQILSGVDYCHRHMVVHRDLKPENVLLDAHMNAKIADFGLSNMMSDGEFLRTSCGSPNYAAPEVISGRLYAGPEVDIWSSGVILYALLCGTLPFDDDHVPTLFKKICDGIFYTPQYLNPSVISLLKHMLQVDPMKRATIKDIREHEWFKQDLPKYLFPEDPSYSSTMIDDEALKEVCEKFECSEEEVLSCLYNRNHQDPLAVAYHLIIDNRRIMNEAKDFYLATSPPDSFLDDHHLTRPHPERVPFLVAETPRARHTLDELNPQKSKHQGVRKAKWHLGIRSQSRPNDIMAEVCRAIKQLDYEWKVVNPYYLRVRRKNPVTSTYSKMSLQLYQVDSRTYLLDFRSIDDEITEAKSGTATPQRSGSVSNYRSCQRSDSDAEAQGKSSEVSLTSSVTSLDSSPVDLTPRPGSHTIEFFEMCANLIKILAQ
Sequence of AMPK A1/B1/G1 (Q9Y478 whole entry partner): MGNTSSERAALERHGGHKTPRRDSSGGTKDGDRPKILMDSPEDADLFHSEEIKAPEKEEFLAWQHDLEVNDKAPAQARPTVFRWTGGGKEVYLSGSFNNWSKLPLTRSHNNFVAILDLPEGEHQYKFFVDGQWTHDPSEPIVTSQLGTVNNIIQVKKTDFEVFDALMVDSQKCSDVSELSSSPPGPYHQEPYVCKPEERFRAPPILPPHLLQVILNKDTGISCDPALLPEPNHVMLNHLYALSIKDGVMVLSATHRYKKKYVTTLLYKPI
Sequence of AMPK A1/B1/G1 (P54619 whole entry partner): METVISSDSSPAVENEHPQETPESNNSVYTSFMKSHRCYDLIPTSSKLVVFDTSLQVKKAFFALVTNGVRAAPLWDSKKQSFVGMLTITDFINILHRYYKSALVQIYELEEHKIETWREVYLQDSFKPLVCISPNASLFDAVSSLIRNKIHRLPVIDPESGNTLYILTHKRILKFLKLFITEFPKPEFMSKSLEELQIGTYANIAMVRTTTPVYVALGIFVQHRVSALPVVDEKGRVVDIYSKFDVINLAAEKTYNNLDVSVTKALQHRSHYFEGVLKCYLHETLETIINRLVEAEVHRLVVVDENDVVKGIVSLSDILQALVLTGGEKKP
Sequence of PAK4 (O96013 whole entry, species assumed): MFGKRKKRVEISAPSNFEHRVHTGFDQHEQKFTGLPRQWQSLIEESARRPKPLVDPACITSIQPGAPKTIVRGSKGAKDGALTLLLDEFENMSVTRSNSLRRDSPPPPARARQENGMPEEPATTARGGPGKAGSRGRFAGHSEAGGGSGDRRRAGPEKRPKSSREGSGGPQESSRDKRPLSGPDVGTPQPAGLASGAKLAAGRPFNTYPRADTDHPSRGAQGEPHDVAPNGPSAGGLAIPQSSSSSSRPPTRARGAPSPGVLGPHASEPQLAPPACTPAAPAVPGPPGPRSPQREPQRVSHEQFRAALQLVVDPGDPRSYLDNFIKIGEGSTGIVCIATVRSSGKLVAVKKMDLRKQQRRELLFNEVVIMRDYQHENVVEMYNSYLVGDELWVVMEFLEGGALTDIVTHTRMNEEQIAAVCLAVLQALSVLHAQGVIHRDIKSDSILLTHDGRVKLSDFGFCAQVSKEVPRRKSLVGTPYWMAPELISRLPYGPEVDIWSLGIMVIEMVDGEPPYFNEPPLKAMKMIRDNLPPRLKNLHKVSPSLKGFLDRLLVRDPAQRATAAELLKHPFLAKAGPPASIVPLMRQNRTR
Sequence of AKT1 (PKB alpha) (P31749 whole entry, species assumed): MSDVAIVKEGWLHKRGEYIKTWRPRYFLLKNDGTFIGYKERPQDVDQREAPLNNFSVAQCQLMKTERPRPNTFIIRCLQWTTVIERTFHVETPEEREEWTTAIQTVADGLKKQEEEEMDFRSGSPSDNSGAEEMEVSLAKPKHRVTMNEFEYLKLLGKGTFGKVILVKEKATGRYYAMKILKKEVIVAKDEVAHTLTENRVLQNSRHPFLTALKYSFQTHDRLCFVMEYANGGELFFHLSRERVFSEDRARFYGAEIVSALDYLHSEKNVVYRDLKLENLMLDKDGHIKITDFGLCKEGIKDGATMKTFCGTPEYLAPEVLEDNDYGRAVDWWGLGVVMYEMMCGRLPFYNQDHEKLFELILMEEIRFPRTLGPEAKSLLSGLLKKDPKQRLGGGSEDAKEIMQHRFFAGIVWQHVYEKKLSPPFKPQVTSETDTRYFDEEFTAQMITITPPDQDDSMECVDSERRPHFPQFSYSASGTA
Sequence of LCK (P06239 whole entry, species assumed): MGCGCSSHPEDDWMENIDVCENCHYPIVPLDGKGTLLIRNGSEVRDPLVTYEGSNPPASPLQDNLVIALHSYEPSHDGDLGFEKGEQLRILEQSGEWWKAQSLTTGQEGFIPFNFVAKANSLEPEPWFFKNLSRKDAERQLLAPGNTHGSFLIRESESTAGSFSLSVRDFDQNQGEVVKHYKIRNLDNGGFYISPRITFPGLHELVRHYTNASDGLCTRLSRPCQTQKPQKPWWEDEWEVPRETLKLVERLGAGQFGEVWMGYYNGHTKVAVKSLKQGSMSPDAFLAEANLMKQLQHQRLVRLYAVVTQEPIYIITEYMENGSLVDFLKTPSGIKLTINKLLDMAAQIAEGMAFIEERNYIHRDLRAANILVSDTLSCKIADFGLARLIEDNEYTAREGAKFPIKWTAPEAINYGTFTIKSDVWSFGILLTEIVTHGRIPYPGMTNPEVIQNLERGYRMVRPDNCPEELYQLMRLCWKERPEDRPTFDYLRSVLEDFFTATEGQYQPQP
Sequence of CSNK2A1 (CK2 alpha 1) (P68400 whole entry, species assumed): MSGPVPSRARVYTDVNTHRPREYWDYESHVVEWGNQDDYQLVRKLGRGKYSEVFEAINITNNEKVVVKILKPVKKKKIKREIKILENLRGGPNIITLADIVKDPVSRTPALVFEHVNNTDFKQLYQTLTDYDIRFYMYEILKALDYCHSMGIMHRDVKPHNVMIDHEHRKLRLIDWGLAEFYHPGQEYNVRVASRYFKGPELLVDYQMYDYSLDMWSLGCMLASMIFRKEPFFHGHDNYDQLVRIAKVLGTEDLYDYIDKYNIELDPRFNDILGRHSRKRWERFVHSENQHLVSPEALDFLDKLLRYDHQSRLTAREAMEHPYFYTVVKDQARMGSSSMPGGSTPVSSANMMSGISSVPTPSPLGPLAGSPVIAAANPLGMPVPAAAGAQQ
Sequence of ABL1 (P00519 whole entry, species assumed): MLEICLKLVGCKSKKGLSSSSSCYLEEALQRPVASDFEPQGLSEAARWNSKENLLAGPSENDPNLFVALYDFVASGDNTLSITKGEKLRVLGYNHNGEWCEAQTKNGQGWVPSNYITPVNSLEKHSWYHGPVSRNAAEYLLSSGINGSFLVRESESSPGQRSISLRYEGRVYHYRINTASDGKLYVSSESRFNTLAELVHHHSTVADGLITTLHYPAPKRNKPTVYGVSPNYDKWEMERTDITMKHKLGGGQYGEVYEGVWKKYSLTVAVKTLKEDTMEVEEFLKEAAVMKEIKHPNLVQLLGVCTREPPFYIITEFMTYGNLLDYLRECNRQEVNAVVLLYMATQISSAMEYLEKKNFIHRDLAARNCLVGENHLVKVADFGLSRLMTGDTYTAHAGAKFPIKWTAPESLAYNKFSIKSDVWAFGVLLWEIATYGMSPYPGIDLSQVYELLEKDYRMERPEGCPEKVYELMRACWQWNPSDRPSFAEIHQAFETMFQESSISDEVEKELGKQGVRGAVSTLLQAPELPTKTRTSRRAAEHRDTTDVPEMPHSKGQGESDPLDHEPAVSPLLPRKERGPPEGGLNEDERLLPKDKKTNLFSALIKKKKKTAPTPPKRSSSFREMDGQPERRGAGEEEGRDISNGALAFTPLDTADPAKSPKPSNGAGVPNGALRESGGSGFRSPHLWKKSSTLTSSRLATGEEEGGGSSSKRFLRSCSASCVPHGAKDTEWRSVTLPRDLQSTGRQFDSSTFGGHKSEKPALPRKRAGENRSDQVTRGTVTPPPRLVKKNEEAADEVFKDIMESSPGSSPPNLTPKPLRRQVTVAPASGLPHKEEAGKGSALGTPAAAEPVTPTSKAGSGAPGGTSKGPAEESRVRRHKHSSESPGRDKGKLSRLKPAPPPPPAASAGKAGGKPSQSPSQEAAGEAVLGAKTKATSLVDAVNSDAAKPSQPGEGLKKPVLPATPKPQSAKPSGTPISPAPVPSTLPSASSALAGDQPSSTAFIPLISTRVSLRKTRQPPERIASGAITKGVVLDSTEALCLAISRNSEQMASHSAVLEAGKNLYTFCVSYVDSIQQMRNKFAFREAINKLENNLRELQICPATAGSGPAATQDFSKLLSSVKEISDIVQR
Sequence of PLK1 (P53350 whole entry, species assumed): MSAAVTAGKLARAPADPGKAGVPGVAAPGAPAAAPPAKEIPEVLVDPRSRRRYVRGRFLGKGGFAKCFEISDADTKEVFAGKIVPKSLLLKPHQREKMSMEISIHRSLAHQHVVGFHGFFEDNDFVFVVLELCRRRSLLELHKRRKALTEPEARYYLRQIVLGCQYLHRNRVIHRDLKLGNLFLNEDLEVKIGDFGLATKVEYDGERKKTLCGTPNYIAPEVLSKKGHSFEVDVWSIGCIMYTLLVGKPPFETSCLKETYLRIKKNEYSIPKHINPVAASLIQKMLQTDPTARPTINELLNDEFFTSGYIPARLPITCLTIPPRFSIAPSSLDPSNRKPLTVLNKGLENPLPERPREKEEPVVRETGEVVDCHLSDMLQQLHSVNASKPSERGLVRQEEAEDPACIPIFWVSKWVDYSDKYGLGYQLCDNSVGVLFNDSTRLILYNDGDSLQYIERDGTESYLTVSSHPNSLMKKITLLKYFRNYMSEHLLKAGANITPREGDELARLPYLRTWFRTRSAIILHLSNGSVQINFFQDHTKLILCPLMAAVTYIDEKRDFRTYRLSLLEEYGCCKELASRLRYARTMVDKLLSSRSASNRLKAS

Consider `CS(=O)(=O)N1CC2(CCN(C(=O)OC[C@H]3O[C@@H](n4cnc5c(N)ncnc54)[C@H](O)[C@@H]3O)CC2)c2ccccc21` [Compound C98], for which the inhibition at 10 µM was determined as 7% in assay [1]; 68% in assay [2]; 0% in assay [3]; 9% in assay [4]; 84% in [5]; 6% in assay [6]. In addition, the inhibition at 10 µM in assay [7] was 8%; in assay [8] it was 58%; in [9] it was -8%; in assay [10], 2%; in assay [11], 15%; in assay [12], 4%. For the same compound, the inhibition at 10 µM is -7% in assay [13], 2% in assay [14] and 2% in assay [15].
Take `Nc1ncnc2c1ncn2[C@@H]1O[C@H](COC(=O)N2CCS(=O)(=O)CC2)[C@@H](O)[C@H]1O` [Compound C100]: the inhibition at 10 µM in assay [1] was 2%; in [2], -6%; in assay [3], 13%; in assay [4], 4%; in [5], 9%; in assay [6] it was -1%. Further, the inhibition at 10 µM in assay [7] was 5%; in [8] it was 2%; in assay [9] it was -8%; in assay [10], 15%; in [11] it was 1%; in assay [12], 1%. For the same compound, the inhibition at 10 µM in assay [13] is -11%; in assay [14] it was 8%; in assay [15], 5%.

As a reminder, the inhibition is the relative decrease from the control value, in per cent.

The record behind these values is patent EP3212201B1, “NUCLEOSIDE KINASE INHIBITORS” (BCI Pharma, priority 2014, dated 2016).
